# In US10583087B2, “Pharmaceutical composition for oral administration” (ASTELLAS PHARMA INC., priority 2015, dated 2020):
# Like-named read-outs stand apart in the source and are kept apart here.
# Legend:
# [1] = Solubility of compound A in JP dissolution test fluids; format: physicochemical
# [2] = Behaviour of compound A upon contact with a solvent (gelation); format: physicochemical; conditions: solvent such as water
structure (smiles),measurement,setting,value
"CC[C@@H]1CCCN1Cc1sc(NC(=O)c2cnc(N3CCC(C(=O)O)CC3)cn2)nc1-c1ccc(OC)c(C(F)(F)F)c1 [Compound A, 1-{5-[(5-{[(2R)-2-ethylpyrrolidin-1-yl]methyl}-4-[4-methoxy-3-(trifluoromethyl)phenyl]-1,3-thiazol-2-yl)carbamoyl]pyrazin-2-yl}pyperidine-4-carboxylic acid]",pH dependence of solubility,[1],pH-dependent
same,solubility,"[1]; aqueous buffer, second fluid for a dissolution test of the Japanese Pharmacopoeia, JP2 (pH 6.8), read-out: solubility in a neutral pH range",~17.8 µg/mL
same,solubility,"[1]; simulated gastric fluid, first fluid for a dissolution test of the Japanese Pharmacopoeia, JP1 (pH 1.2), read-out: solubility in an acidic pH range",~44.1 µg/mL
same,gelation upon contact with a solvent,[2],gelled upon contact with a solvent
